test: Metabolite identification in mouse liver microsomes; assay type: in vitro ADME; conditions: NADPH-dependent
Description: started by addition of NADPH (1 mM) as cofactor and shaken for 30 minutes at 37 °C. The
reactions were then quenched by adding 300 µL of ice-cold acetonitrile containing internal
standard (carbamazepine, 0.0236 µg/mL) and centrifuged. The supernatant was transferred to
a fresh 96-well plate and analysed by LC-MS/MS (Agilent Rapid Resolution HPLC, AB
SCIEX 4500 MS). The relative loss of parent compound over time was monitored and plots
(concentration vs. time) were prepared per compound to determine the first order rate constant
for compound depletion. This was in turn used to calculate half-life, in vitro intrinsic clearance
and in vivo hepatic extraction ratio.6
Metabolite Identification Studies
The test compound (10 µM) was incubated at 37 °C in a solution containing 1 mg/ml
microsomes (MLM, male mouse CD1, Lot No. 1510043, Xenotech), magnesium chloride (5
mM) and NADPH (1 mM) in sodium phosphate buffer (100 mM, pH 7.4) for 60 minutes while
shaking. The samples were then prepared by ice-cold acetonitrile precipitation, centrifuged,
and filtered for LC-MS/MS analysis.
Controls containing all the sample constituents (not incubated), and in which NADPH,
microsomes or the test compound were individually excluded were also prepared and handled
similarly to the test sample. Verapamil (10 µM) was incubated concomitantly as a positive
Fluorescence Live-cell Microscopy […]

Compound | Number of metabolites identified
CCN(CCNc1cc2[nH]c(-c3cccc(C(F)(F)F)c3)nc2cn1)Cc1ccc(Cl)cc1O [Compound 14, 5-Chloro-2-((ethyl(2-((2-(3-(trifluoromethyl)phenyl)-1H-imidazo[4,5-c]pyridin-6-yl)amino)ethyl)amino)methyl)phenol] | 4

test: In vitro microsomal stability, rat liver microsomes; assay type: in vitro ADME; conditions: 1 μM, 0.4 mg/mL protein
Description: Xenotech, Kansas, USA), suspended in 0.1 M phosphate buffer (pH 7.4). (Details of this assay are described in the Supporting Information.) page 20: fold to attain six assay concentrations of 100-0.001 μg/mL. […] was used as the reference compound in this assay. The highest concentration of DMSO, which was used as the negative control, had no measurable effect on cell viability. After 44 hours of exposure of the cells to the test compounds, a solution of MTT was added. This was followed by an additional 4 hours of incubation at 37 °C. The assay plates were centrifuged, medium removed, and DMSO was added to the crystals. The amount of formazan was ascertained by measuring the absorbance at 540 nm. GraphPad Prism software was then used to generate IC50 values through a non-linear dose-response curve analysis. β-Hematin Inhibition Assay 20 mM stock solutions of controls and test compounds were made in DMSO. A solution […] was added to every well in columns 1-11 of a 96-well plate. 140 μL of water and 40 μL of 305.5 μM NP-40 were added to column 12 to mediate the formation of beta-hematin. 20 μL of test compounds (20 mM) were added to column 12 and 100 μL of this solution serially diluted to column 2, leaving column 1 blank (0 μM of test compound). 178.8 μL aliquot of hematin stock was suspended in 20 ml of a 1 M acetate buffer at pH 4.9. 100 μL of this hematin suspension was then added into each well, and the plates were incubated for ±5 hrs at 37°C. Subsequently, 32 μL of pyridine solution (20% water, 20% acetone, 10% 2M HEPES buffer at pH 7.4 and 50% pyridine) and 60 μL of acetone were added to all wells. The absorbances of plate wells were recorded at 405 nm on a SpectraMax plate reader. Sigmoidal dose-response curves with variable slopes were fitted to the absorbance data using GraphPad Prism to obtain the IC50 values for each compound. In vitro Microsomal Stability Assay The in vitro microsomal stability assay was performed in duplicate in a 96-well micro titre […] individually in human (pool of 50, mixed gender), rat (pool of 711, male Sprague Dawley) and mouse (pool of 1634, male CD1) liver microsomes (final protein concentration of 0.4 mg/mL; Xenotech, Kansas, USA), suspended in 0.1M phosphate buffer (pH 7.4). Incubations were S20 page 21: started by addition of NADPH (1 mM) as cofactor and shaken for 30 minutes at 37 °C. The reactions were then quenched by adding 300 μL of ice-cold acetonitrile containing internal standard (carbamazepine, 0.0236 μg/mL) and centrifuged. The supernatant was transferred to a fresh 96-well plate and analysed by LC-MS/MS (Agilent Rapid Resolution HPLC, AB SCIEX 4500 MS). The relative loss of parent compound over time was monitored and plots (concentration vs. time) were prepared per compound to determine the first order rate constant for compound depletion. This was in turn used to calculate half-life, in vitro intrinsic clearance and in vivo hepatic extraction ratio.6 Metabolite Identification Studies […] microsomes (MLM, male mouse CD1, Lot No. 1510043, Xenotech), magnesium chloride (5 mM) and NADPH (1 mM) in sodium phosphate buffer (100 mM, pH 7.4) for 60 minutes while shaking. The samples were then prepared by ice-cold acetonitrile precipitation, centrifuged, and filtered for LC-MS/MS analysis. […] Fluorescence Live-cell Microscopy […] […]

Compound | Microsomal EH (hepatic extraction ratio), rat
CCN(CCNc1cc2[nH]c(C3CCCC3)nc2cn1)Cc1ccc(Cl)cc1O [Compound 1, 5-Chloro-2-(((2-((2-cyclopentyl-1H-imidazo[4,5-c]pyridin-6-yl)amino)ethyl)(ethyl)amino)methyl)phenol] | 0.75
CCN(CCNc1cc2[nH]c(C3CC3)nc2cn1)Cc1ccc(Cl)cc1O [Compound 5, 5-Chloro-2-(((2-((2-cyclopropyl-1H-imidazo[4,5-c]pyridin-6-yl)amino)ethyl)(ethyl)amino)methyl)phenol] | 0.73
CCN(CCNc1cc2[nH]c(C3(C)CC3)nc2cn1)Cc1ccc(Cl)cc1O [Compound 6, 5-Chloro-2-((ethyl(2-((2-(1-methylcyclopropyl)-1H-imidazo[4,5-c]pyridin-6-yl)amino)ethyl)amino)methyl)phenol] | 0.73
CCN(CCNc1cc2[nH]c(-c3cccc(C(F)(F)F)c3)nc2cn1)Cc1ccc(Cl)cc1O [Compound 14, 5-Chloro-2-((ethyl(2-((2-(3-(trifluoromethyl)phenyl)-1H-imidazo[4,5-c]pyridin-6-yl)amino)ethyl)amino)methyl)phenol] | 0.70
CCN(CCNc1cc2[nH]c(-c3ccc(C(F)(F)F)nc3)nc2cn1)Cc1ccc(Cl)cc1O [Compound 19, 5-Chloro-2-((ethyl(2-((2-(6-(trifluoromethyl)pyridin-3-yl)-1H-imidazo[4,5-c]pyridin-6-yl)amino)ethyl)amino)methyl)phenol] | 0.78

— article PMC10111423, “Antimalarial Imidazopyridines Incorporating an Intramolecular Hydrogen Bonding Motif: Medicinal Chemistry and Mechanistic Studies” (ACS Infectious Diseases, 2023)
